Results published in US20250114347A1, “TOPICAL NALTREXONE AS A TREATMENT FOR DRY EYE” (The Penn State Research Foundation, priority 2022, published 2025).

Key:
diabetic rats = experiment: Schirmer test (tear production) in hyperglycemic rats with dry eye, topical drops twice daily; format: in vivo, Sprague-Dawley rats
Description: (§1) Four solutions were prepared with 0%, 0.5%, 1.5%, and 3% naltrexone (NTX). Previous formulations contained 0.003% NTX.
Adult male and female Sprague-Dawley rats were rendered hyperglycemic for 6-8 weeks, with blood glucose levels >600 mg/dL. Age at time of testing was 15-18 weeks of age.
(§2) Experimental paradigm: 1-4 rats were tested with each dose (mixture of male and females). Left eyes only were treated twice daily with one drop. • Schirmer test for baseline (to determine tear production and establish dry eye) • Add drop at 0800 and again at 1700 hr (4:40-6:00 pm) • Take Schirmer test 24 hr later • Add drop at 0800 and again at 1700 hr (4th drop) • Take Schirmer test 48 hr after first drop

normal rat = experiment: Schirmer test (tear production) in a normal rat, topical drops; format: in vivo; details: 3% NTX solution, topical drop
Description: as §1, §2

Which “reversal of dry eye” value (diabetic rats; 0.5% NTX solution, one drop twice daily, Schirmer test at 24 and 48 hr) does the source give for `O=C1CC[C@@]2(O)[C@H]3Cc4ccc(O)c5c4[C@@]2(CCN3CC2CC2)[C@H]1O5` [NTX, 17-(cyclopropylmethyl)-4,5α-epoxy-3,14-dihydroxymorphinan-6-one] here?
Its value is “reversed dry eye”.

What about the “relative effectiveness among the tested concentrations” value (diabetic rats; 1.5% NTX solution compared with 0.5% and 3%) of the same molecule?
Its value is “most effective”.

What about the “reversal of dry eye” value (diabetic rats; 1.5% NTX solution, one drop twice daily, Schirmer test at 24 and 48 hr) of the same molecule?
Its value is “reversed dry eye”.

What about the “reversal of dry eye” value (diabetic rats; 3% NTX solution left at RT for 3 weeks (some decomposition of the NTX)) of the same molecule?
The value was “effective at reversing dry eye”.

And the “reversal of dry eye” value (diabetic rats; 3% NTX solution, both male and female, one drop twice daily, Schirmer test at 24 and 48 hr)?
The value was “did not reverse dry eye”.

What about the “effect on dry eye in a normal rat” value (normal rat) of the same molecule?
Its value is “caused dry eye”.
